Results: patent US11661431B2, “Thienopyrrole compounds” (Gilead Sciences, Inc., priority 2021, dated 2023)
Like-named read-outs stand apart in the source and are kept apart here.

Experiments:
TLR8 = TLR8 (Homo sapiens (Human), UniProt Q9NR97); experiment: TLR8 human peripheral blood mononuclear cell (PBMC) cell-based assay (Compound A as agonist; TNFα and IL12p40 readout); conditions: TLR8 agonist Compound A at 800 nM, 6 hours, antagonist potency
TLR7 = TLR7 (Homo sapiens (Human), UniProt Q9NYK1); experiment: TLR7 human peripheral blood mononuclear cell (PBMC) cell-based assay (GS-986 as agonist; IL-6 and IFNα readout); conditions: TLR7 agonist GS-986 at 400 nM, 6 hours, antagonist potency
TLR7, sequence (Q9NYK1 27-1049): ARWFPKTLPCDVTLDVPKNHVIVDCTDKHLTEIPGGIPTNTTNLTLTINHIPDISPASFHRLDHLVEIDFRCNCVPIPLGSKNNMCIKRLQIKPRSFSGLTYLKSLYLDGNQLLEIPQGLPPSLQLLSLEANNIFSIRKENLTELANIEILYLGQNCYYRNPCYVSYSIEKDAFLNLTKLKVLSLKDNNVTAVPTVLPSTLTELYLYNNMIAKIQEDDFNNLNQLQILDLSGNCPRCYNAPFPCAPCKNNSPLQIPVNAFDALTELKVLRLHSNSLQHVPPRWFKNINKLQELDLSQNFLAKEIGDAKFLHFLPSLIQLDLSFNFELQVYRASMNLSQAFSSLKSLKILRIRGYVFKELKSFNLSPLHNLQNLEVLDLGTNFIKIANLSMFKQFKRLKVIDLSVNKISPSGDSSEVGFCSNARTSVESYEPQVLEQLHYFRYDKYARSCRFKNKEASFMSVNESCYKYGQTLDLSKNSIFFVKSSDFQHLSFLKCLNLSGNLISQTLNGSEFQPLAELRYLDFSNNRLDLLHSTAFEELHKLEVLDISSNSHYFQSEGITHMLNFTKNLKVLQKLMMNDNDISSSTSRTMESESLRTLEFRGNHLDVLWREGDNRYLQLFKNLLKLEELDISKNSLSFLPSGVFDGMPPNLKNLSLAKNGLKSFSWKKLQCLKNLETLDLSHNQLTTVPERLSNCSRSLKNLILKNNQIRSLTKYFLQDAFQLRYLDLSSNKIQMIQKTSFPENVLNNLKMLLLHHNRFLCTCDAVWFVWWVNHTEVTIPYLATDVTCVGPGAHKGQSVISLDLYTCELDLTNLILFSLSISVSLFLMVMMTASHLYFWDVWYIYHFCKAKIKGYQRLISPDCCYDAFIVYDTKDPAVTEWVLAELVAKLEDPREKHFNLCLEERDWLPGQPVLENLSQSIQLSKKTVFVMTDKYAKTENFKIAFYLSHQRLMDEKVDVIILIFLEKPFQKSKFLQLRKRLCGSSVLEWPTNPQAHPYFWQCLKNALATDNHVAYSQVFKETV
Method in brief: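 Human PBMCs (100,000 cells/well) preincubated 1 h at 37 °C with antagonist in 10-point dose response, then stimulated with TLR7 agonist for a further 6 h at 37 °C, 5% CO2. Supernatant IL-6 and IFNα measured by electrochemiluminescence immunoassay.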

[1] = human PBMCs, read-out: TLR-8 EC50
[2] = human PBMCs, read-out: TLR-7 EC50

TLR8, sequence (Q9NR97 27-1041): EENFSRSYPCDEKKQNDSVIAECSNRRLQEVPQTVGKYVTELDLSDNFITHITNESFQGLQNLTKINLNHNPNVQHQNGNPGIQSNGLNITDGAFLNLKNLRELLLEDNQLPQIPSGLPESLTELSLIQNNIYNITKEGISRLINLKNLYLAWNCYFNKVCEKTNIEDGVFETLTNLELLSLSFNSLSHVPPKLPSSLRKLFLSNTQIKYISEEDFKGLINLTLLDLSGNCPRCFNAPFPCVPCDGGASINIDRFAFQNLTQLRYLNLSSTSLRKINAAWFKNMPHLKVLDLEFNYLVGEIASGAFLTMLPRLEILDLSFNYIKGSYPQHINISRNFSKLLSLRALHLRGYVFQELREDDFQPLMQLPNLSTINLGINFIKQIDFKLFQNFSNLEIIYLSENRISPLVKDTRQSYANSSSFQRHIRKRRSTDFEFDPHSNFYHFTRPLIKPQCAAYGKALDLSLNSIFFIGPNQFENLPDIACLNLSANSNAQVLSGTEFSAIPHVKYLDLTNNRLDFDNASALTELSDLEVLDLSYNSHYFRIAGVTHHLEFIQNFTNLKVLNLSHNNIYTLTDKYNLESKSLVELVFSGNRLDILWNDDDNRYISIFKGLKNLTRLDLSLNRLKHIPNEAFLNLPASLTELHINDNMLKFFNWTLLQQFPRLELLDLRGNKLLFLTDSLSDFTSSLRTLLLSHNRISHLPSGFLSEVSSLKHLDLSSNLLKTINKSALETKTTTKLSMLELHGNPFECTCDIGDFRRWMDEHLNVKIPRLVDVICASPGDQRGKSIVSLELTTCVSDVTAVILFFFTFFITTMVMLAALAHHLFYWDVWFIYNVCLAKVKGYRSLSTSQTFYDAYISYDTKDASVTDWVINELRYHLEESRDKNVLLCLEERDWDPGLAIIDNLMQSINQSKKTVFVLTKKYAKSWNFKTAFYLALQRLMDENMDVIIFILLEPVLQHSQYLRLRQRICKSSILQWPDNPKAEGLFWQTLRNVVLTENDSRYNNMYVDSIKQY

Compound	EC50 (TLR8; [1]) [nM]	EC50 (TLR7; [2]) [nM]	EC50 (TLR8; TLR-8 EC50, human PBMCs) [nM]	EC50 (TLR7; TLR-7 EC50, human PBMCs) [nM]
Cc1c(-c2[nH]c3sc(C4CCN(C(=O)[C@@H]5C[C@@H]6OCC[C@@H]6N5)CC4)c(C)c3c2C(C)C)cn2ncnc2c1C [Example 143]	10.9	2.57	–	–
Cc1c(-c2[nH]c3sc([C@@H]4C[C@@H]5C[C@H]4CN5CC(=O)NC(C)C)c(C)c3c2C(C)C)cn2ncnc2c1C [Example 185]	0.57	1.89	–	–
Cc1c(-c2[nH]c3sc(C4CC(C(=O)N5CCNCC5)C4)c(C)c3c2C(C)C)cn2ncnc2c1C (single isomer, unassigned) [Example 239, (3-(5-(7,8-dimethyl-[1,2,4]triazolo[1,5-a]pyridin-6-yl)-4-isopropyl-3-methyl-6H-thieno[2,3-b]pyrrol-2-yl)cyclobutyl)(piperazin-1-yl)methanone]	1.5	< 0.05	–	–
Cc1cc(-c2[nH]c3sc(C4CCNCC4)c(CO)c3c2C(C)C)cn2ncnc12 [Example 258, (4-isopropyl-5-(8-methyl-[1,2,4]triazolo[1,5-a]pyridin-6-yl)-2-(piperidin-4-yl)-6H-thieno[2,3-b]pyrrol-3-yl)methanol]	13.6	0.89	–	–
Cc1c(-c2[nH]c3sc([C@@H]4C[C@@H]5C[C@H]4CN5)cc3c2C(C)C)cn2ncnc2c1C [Example 220]	0.64	0.11	–	–
Cc1cc(-c2[nH]c3sc([C@H]4C[C@]5(CCN(CC(N)=O)C5)C4)c(C)c3c2C(C)C)cn2ncnc12 [Example 132]	0.54	0.1	–	–
Cc1c(-c2[nH]c3sc([C@@H]4C[C@@H]5C[C@H]4CN5CCS(=O)(=O)CCO)c(C)c3c2C(C)C)cn2ncnc2c1C [Example 307, 2-((2-((1S,4R,5R)-5-(5-(7,8-dimethyl-[1,2,4]triazolo[1,5-a]pyridin-6-yl)-4 isopropyl-3-methyl-6H-thieno[2,3-b]pyrrol-2-yl)-2-azabicyclo[2.2.1]heptan-2-yl)ethyl)sulfonyl)ethan-1-ol]	0.25	0.21	–	–
Cc1c(-c2[nH]c3sc([C@@H]4C[C@@H]5C[C@H]4CN5C(C)C(N)=O)c(C)c3c2C(C)C)cn2ncnc2c1C (stereo partly drawn) [Example 81]	0.45	0.19	–	–
Cc1cc(-c2[nH]c3sc([C@H]4C[C@@]5(CCNC5)C4)c(C)c3c2C(C)C)cn2ncnc12 [Example 125]	1.5	0.33	–	–
Cc1c(C2CC3(C2)CN(C(=O)[C@H]2COCCN2)C3)sc2[nH]c(-c3cc(C)c4ncnn4c3)c(C(C)C)c12 [Example 53]	2.42	0.27	–	–
CCc1c(C2CCNCC2)sc2[nH]c(-c3cc(C)c4ncnn4c3)c(C(C)C)c12 [Example 277]	20.1	0.06	–	–
Cc1c(-c2[nH]c3sc(C4C[C@H]5CC[C@@H]4N5)c(C)c3c2C(C)C)cn2ncnc2c1C (stereo partly drawn) [Example 225]	–	–	6.12	0.47
Cc1c(-c2[nH]c3sc([C@H]4C[C@H](c5nnc([C@@H]6COCCN6)o5)C4)c(C)c3c2C(C)C)cn2ncnc2c1C (single isomer, unassigned) [Example 242]	37.3	2.9	–	–
Cc1c(-c2[nH]c3sc([C@@H]4C[C@@H]5C[C@H]4CN5CC(=O)N[C@H]4C[C@H](O)C4)c(C)c3c2C(C)C)cn2ncnc2c1C [Example 270]	0.59	0.64	–	–
Cc1c(-c2[nH]c3sc([C@@H]4C[C@@H]5C[C@H]4CN5Cc4ccc(=O)[nH]c4)c(C)c3c2C(C)C)cn2ncnc2c1C [Example 178]	0.16	0.06	–	–
Cc1c(C2CCN(C(=O)C3(N4CCOCC4)CC3)CC2)sc2[nH]c(-c3cc(C)c4ncnn4c3)c(C(C)C)c12 [Example 116]	27.4	0.39	–	–
Cc1c(C2CCN(C(=O)[C@H]3COCCN3C)CC2)sc2[nH]c(-c3cc(C)c4ncnn4c3)c(C(C)C)c12 [Example 48]	19.7	0.29	–	–
Cc1c(-c2[nH]c3sc([C@@H]4C[C@@H]5C[C@H]4CN5CC4(F)COC4)c(C)c3c2C(C)C)cn2ncnc2c1C [Example 173]	1.06	0.15	–	–

Continued by falling EC50 (TLR8; [1]), values first:

EC50 (TLR8; [1]) [nM]	EC50 (TLR7; [2]) [nM]	Compound	EC50 (TLR8; TLR-8 EC50, human PBMCs) [nM]	EC50 (TLR7; TLR-7 EC50, human PBMCs) [nM]
49.3	0.34	Cc1c(-c2[nH]c3sc(C4CCN(C(=O)C5(N)COC5)CC4)c(C)c3c2C(C)C)cn2ncnc2c1C [Example 106]	–	–
34.2	0.07	Cc1c(C2CCNCC2)sc2[nH]c(-c3cc(C)c4nccn4c3)c(C(C)C)c12 [Example 252]	–	–
30.7	3.51	Cc1c(-c2[nH]c3sc(C4CC(c5nnc([C@H]6COCCN6)o5)C4)c(C)c3c2C(C)C)cn2ncnc2c1C (single isomer, unassigned) [Example 241]	–	–
19.7	1.06	CNC(=O)CN1CCC(c2sc3[nH]c(-c4cc(C)c5ncnn5c4)c(C(C)C)c3c2C)CC1 [Example 28]	–	–
19.3	0.65	Cc1c(-c2[nH]c3sc(C4CCN(C5CCNC5=O)CC4)c(C)c3c2C(C)C)cn2ncnc2c1C (single isomer, unassigned) [Example 290, 3-[4-[5-(7,8-dimethyl-[1,2,4]triazolo[1,5-a]pyridin-6-yl)-4-isopropyl-3-methyl-6H-thieno[2,3-b]pyrrol-2-yl]-1-piperidyl]pyrrolidin-2-one]	–	–
18.6	1.17	Cc1c(C2CCCN(CC(N)=O)CC2)sc2[nH]c(-c3cc(C)c4ncnn4c3)c(C(C)C)c12 (single isomer, unassigned) [Example 263, 2-(4-(4-isopropyl-3-methyl-5-(8-methyl-[1,2,4]triazolo[1,5-a]pyridin-6-yl)-6H-thieno[2,3-b]pyrrol-2-yl)azepan-1-yl)acetamide]	–	–
13.8	0.21	Cc1c(C2CCN(C(=O)[C@@H]3CCCN3)CC2)sc2[nH]c(-c3cc(C)c4ncnn4c3)c(C(C)C)c12 [Example 14]	–	–
9.53	0.72	Cc1c(-c2[nH]c3sc([C@@H]4C[C@@H]5C[C@H]4CN5C(=O)[C@@H]4C[C@H](F)CN4)c(C)c3c2C(C)C)cn2ncnc2c1C [Example 149]	–	–
9.48	3.12	Cc1c(C2CN(CC(N)=O)C2)sc2[nH]c(-c3cc(C)c4ncnn4c3)c(C(C)C)c12 [Example 64]	–	–
8.94	< 0.05	Cc1c(-c2[nH]c3sc(C4CCN(C(=O)[C@H]5C[C@@]6(CN(C)CCO6)C5)CC4)c(C)c3c2C(C)C)cn2ncnc2c1C [Example 296, [4-[5-(7,8-dimethyl-[1,2,4]triazolo[1,5-a]pyridin-6-yl)-4-isopropyl-3-methyl-6H-thieno[2,3-b]pyrrol-2-yl]-1-piperidyl]-(8-methyl-5-oxa-8-azaspiro[3.5]nonan-2-yl)methanone]	–	–
8.32	0.05	Cc1c(C2CCN(C(=O)N3CCNCC3)CC2)sc2[nH]c(-c3cc(C)c4ncnn4c3)c(C(C)C)c12 [Example 32]	–	–
6.79	2.68	Cc1c(-c2[nH]c3sc(C4CC5(CNCCO5)C4)c(C)c3c2C(C)C)cn2ncnc2c1C (single isomer, unassigned) [Example 90, 2-(5-(7,8-dimethyl-[1,2,4]triazolo[1,5-a]pyridin-6-yl)-4-isopropyl-3-methyl-6H-thieno[2,3-b]pyrrol-2-yl)-5-oxa-8-azaspiro[3.5]nonane]	–	–
6.58	0.45	Cc1c(-c2[nH]c3sc(-c4ccc(C5CCNCC5)cc4)c(C)c3c2C(C)C)cn2ncnc2c1C [Example 111]	–	–
4.54	< 0.05	Cc1c(C2CCCN(CC(N)=O)CC2)sc2[nH]c(-c3cc(C)c4ncnn4c3)c(C(C)C)c12 (single isomer, unassigned) [Example 262, 2-(4-(4-isopropyl-3-methyl-5-(8-methyl-[1,2,4]triazolo[1,5-a]pyridin-6-yl)-6H-thieno[2,3-b]pyrrol-2-yl)azepan-1-yl)acetamide]	–	–
3.01	0.26	Cc1c(-c2[nH]c3sc(C4CCNCC4)cc3c2C(C)C)cn2ncnc2c1C [Example 219]	–	–
2.91	0.4	Cc1c(-c2[nH]c3sc([C@H]4C[C@@H]5C[C@H]4CN5)c(C)c3c2C(C)C)cn2ncnc2c1C [Example 275, 2-((1S,4R,5S)-2-azabicyclo[2.2.1]heptan-5-yl)-5-(7,8-dimethyl-[1,2,4]triazolo[1,5-a]pyridin-6-yl)-4-isopropyl-3-methyl-6H-thieno[2,3-b]pyrrole]	–	–
2.71	0.44	Cc1c(-c2[nH]c3sc(C4C[C@H]5C[C@@H]4N(CC(N)=O)C5)c(C)c3c2C(C)C)cn2ncnc2c1C (stereo partly drawn) [Example 114]	–	–
2.67	1.94	Cc1c(-c2[nH]c3sc(C4CCN(C(=O)[C@@H]5COCCN5)CC4)c(C)c3c2C(C)C)cn2ncnc2c1C [Example 92]	–	–
0.96	0.74	Cc1c(-c2[nH]c3sc([C@@H]4C[C@@H]5C[C@H]4CN5C4CCS(=O)(=O)CC4)c(C)c3c2C(C)C)cn2ncnc2c1C [Example 168]	–	–
0.61	< 0.05	Cc1c(-c2[nH]c3sc([C@@H]4C[C@@H]5C[C@H]4CN5C4CC5(CCNC5=O)C4)c(C)c3c2C(C)C)cn2ncnc2c1C (stereo partly drawn) [Example 297]	–	–
0.51	< 0.05	Cc1c(-c2[nH]c3sc([C@@H]4C[C@@H]5C[C@H]4CN5CC(=O)N=S(C)(C)=O)c(C)c3c2C(C)C)cn2ncnc2c1C [Example 155]	–	–
0.34	1.27	Cc1c(-c2[nH]c3sc([C@@H]4C[C@@H]5C[C@H]4CN5CC(=O)NC4CC4)c(C)c3c2C(C)C)cn2ncnc2c1C [Example 184]	–	–
0.17	< 0.05	Cc1c(-c2[nH]c3sc([C@@H]4C[C@@H]5C[C@H]4CN5CCS(N)(=O)=O)c(C)c3c2C(C)C)cn2ncnc2c1C [Example 180]	–	–
0.05	3.15	Cc1c(-c2[nH]c3sc(C4CC5(C4)CN(CC(N)=O)C5)c(C)c3c2C(C)C)cn2ncnc2c1C [Example 31]	–	–
